Data reported in US20210087593A1, “N-[…] ALKALOID COMPOUNDS” (Willow BioSciences Inc., priority 2017, published 2021).

Columns and labels:
[1] = test system: EsNMT; assay: N-alkylation substrate screen using EsNMT (LC-MS); type: biochemical, Ephedra sinica; parameters: key to N-alkylation of substrate alkaloid compounds, Enzyme EsNMT: −=no detectable quantities of product N-alkylated compound; Trace, +, ++, +++=increasing relative levels of product N-alkylated compound; Trace, +, ++, +++=increasing relative levels of product N-alkylated compound; Trace, +, ++, +++=increasing relative levels of product N-alkylated compound; Trace, +, ++, +++=increasing relative levels of product N-alkylated compound; conditions: for N-alkylation of substrate alkaloid compounds, Enzyme EsNMT: 25 μg protein, 1 mM substrate, 1 mM SAM, 60 mM HEPES pH 8, 16 hours at 37° C., relative level of N-alkylated product by LC-MS; for N-alkylated alkaloid product detected after incubation with EsNMT (SEQ. ID NO: 2): incubated in accordance with Example 1, LC-MS
Description: The EsNMT coding sequence was amplified from Ephedra sinica cDNA using gene-specific primers containing restriction sites with Q5 HiFi DNA polymerase (NEB). Restriction digests and ligations (NEB) were carried out to generate a pQE plasmid (Qiagen) for heterologous expression of HIS6-tagged recombinant EsNMT. Protein overexpression was carried out at 18° C. in Escherichia coli SG13009 (Qiagen) grown in lysogeny broth (LB) to which 0.5 mM isopropyl β-D-1-thiogalactopyranoside (IPTG) was added.
(§1) Total soluble protein was extracted from each culture and the recombinant NMTs were purified using TALON cobalt affinity resin (Clontech) followed by desalting and concentration with Amicon Ultra-30 centrifugal filters (EMD Millipore). Protein concentration was determined using the Bradford method, and purity was assessed by SDS-PAGE followed by Coomassie staining.
(§2) Forty-four nitrogenous molecules were screened as potential substrates for EsNMT using a standardized assay (25 μg protein, 1 mM substrate, 1 mM SAM, 60 mM HEPES pH 8, 16 hours at 37° C.). In addition, a representative subset was screened as potential substrates for GfCNMT, GfTNMT and PsRNMT under identical conditions. For each substrate and enzyme combination, negative control assays were carried out using protein heated to 100° C. (boiled) for 20 minutes. Assays were quenched with 9 volumes of methanol, centrifuged to pellet insoluble debris and the supernatants were stored at −20° C. prior to analysis.
(§3) Assay supernatants were analyzed by liquid chromatography-mass spectrometry (LC-MS). LC-MS analysis was performed using a 1200 HPLC coupled with a 6410 triple-quadrupole MS (Agilent). Samples (2 μl) were injected onto a Luna […] Phenyl-Hexyl 100 Å HPLC column and analytes were eluted in a gradient of solvent A (0.1% Formic acid, 5% v/v methanol in water) and solvent B (0.1% Formic acid in methanol) at a flow rate of 300 μl per minute. The gradient began at 0% B, reached 35% B by 12 minutes, then increased to 85% B at 14 min and remained at that level until 18 minutes. Subsequently, the mixture returned to 0% B over a period of 3 minutes before a final 6 minute re-equilibration period. Analytes were applied to the mass analyzer using an electrospray ionization probe operating in positive mode with the following condition: capillary voltage, 4000V; fragmentor voltage, 100V, source temperature, 350° C.; nebulizer pressure, 50 PSI; gas flow 10 L/min. Ions were detected in full scan mode where quadrupoles 1 and 2 were set to RF only, whereas the third quadrupole scanned from 100-500 m/z over 525 milliseconds. Substrate acceptance by the enzymes was determined according to the formation of a peak with a 14-m/z increase in mass, corresponding to methylated substrate and a decrease in the substrate peak area, relative to the appropriate boiled control assay.
(§4) Each of the alkaloid substrates shown in Table 1 were incubated with the following N-alkyltransferases: GfCNMT (SEQ. ID NO: 3), gfTNMT (SEQ. ID NO: 4) and Ps RNMT ([…]) and EsNMT (SEQ. ID NO: 2), as described in Example 1. The presence of N-alkylated alkaloid product was detected as described in Examples 1-20. Legend: ND=Not Determined; −=no detectable quantities of product N-alkylated compound; and Trace, +, ++, +++=increasing relative levels of product N-alkylated compound.

[2] = test system: GfCNMT; assay: N-alkylation substrate screen using GfCNMT (LC-MS); type: biochemical, Glaucium flavum; parameters: key: −=no detectable quantities of product N-alkylated compound; Trace, +, ++, +++=increasing relative levels of product N-alkylated compound; Trace, +, ++, +++=increasing relative levels of product N-alkylated compound; Trace, +, ++, +++=increasing relative levels of product N-alkylated compound; Trace, +, ++, +++=increasing relative levels of product N-alkylated compound; conditions: 25 μg protein, 1 mM substrate, 1 mM SAM, 60 mM HEPES pH 8, 16 hours at 37° C.; relative level of N-alkylated product by LC-MS
Description: (§5) The GfCNMT, GfTNMT and PsRNMT coding sequences were amplified from Glaucium flavum (GfCNMT and GfTNMT) or Papaver somniferum (PsRNMT) cDNA using gene-specific primers containing attB recombination sites with Q5 HiFi DNA polymerase (NEB). Recombination reactions were carried out using BP and LR Clonase II (Thermo Scientific) to generate individual pDONR221 entry plasmids and, subsequently, individual pHGWA plasmids for heterologous expression of polyhistidine (HIS6)-tagged recombinant GfCNMT, GfTNMT and PsRNMT. Protein overexpression was carried out at 18° C. using E. coli ArcticExpress (Agilent) grown in Studier's autoinduction media.
as §1, §2, §3, §4

[3] = test system: GfTNMT; assay: N-alkylation substrate screen using GfTNMT (LC-MS); type: biochemical, Glaucium flavum; parameters: key: −=no detectable quantities of product N-alkylated compound; Trace, +, ++, +++=increasing relative levels of product N-alkylated compound; Trace, +, ++, +++=increasing relative levels of product N-alkylated compound; Trace, +, ++, +++=increasing relative levels of product N-alkylated compound; Trace, +, ++, +++=increasing relative levels of product N-alkylated compound; conditions: 25 μg protein, 1 mM substrate, 1 mM SAM, 60 mM HEPES pH 8, 16 hours at 37° C.; relative level of N-alkylated product by LC-MS
Description: as §5, §1, §2, §3, §4

[4] = test system: PsRNMT; assay: N-alkylation substrate screen using PsRNMT (LC-MS); type: biochemical, Papaver somniferum; parameters: key: −=no detectable quantities of product N-alkylated compound; Trace, +, ++, +++=increasing relative levels of product N-alkylated compound; Trace, +, ++, +++=increasing relative levels of product N-alkylated compound; Trace, +, ++, +++=increasing relative levels of product N-alkylated compound; Trace, +, ++, +++=increasing relative levels of product N-alkylated compound; conditions: 25 μg protein, 1 mM substrate, 1 mM SAM, 60 mM HEPES pH 8, 16 hours at 37° C.; relative level of N-alkylated product by LC-MS
Description: as §5, §1, §2, §3, §4

| Molecule | N-alkylation of substrate alkaloid compounds, Enzyme EsNMT [1] | N-alkylated alkaloid product detected after incubation with EsNMT (SEQ. ID NO: 2) [1] | N-alkylation of substrate alkaloid compounds, Enzyme GfCNMT [2] | N-alkylation of substrate alkaloid compounds, Enzyme GfTNMT [3] | N-alkylation of substrate alkaloid compounds, Enzyme PsRNMT [4] |
| --- | --- | --- | --- | --- | --- |
| CNCC(O)c1ccc(O)cc1 (stereo not shown) [Synephrine, synephrine] | + |  |  |  |  |
| Nc1ncnc2nc[nH]c12 [Adenine, adenine] | − | No N-alkylated alkaloid product compounds were detected |  |  |  |
| COc1cc2c(cc1O)C(Cc1ccc(O)cc1)NCC2 (stereo not shown) [Coclaurine, coclaurine] | + |  | +++ | + | ++ |
| NCCc1c[nH]cn1 [Histamine, histamine] | − | No N-alkylated alkaloid product compounds were detected | − | − | − |
| N[C@@H](Cc1ccc(O)c(O)c1)C(=O)O [3,4-dihydroxyphenylalanine] | − | No N-alkylated alkaloid product compounds were detected |  |  |  |
| O=c1[nH]c(=O)c2ncn([C@@H]3O[C@H](CO)[C@@H](O)[C@H]3O)c2[nH]1 [Xanthosine, xanthosine] | − | No N-alkylated alkaloid product compounds were detected |  |  |  |
| CC[C@@H]1CN2CCc3c([nH]c4cccc(OC)c34)[C@@H]2C[C@@H]1/C(=C\OC)C(=O)OC [Mitragynine, mitragynine] | − | No N-alkylated alkaloid product compounds were detected |  |  |  |
| COc1ccc(Cc2nccc3cc(OC)c(OC)cc23)cc1OC [Papaverine, papaverine, reference compound] | Trace |  |  |  |  |
| C[C@H](N)C(=O)c1ccccc1 [Cathinone, cathinone] | + |  |  |  |  |
| N[C@@H](Cc1c[nH]c2ccccc12)C(=O)O [Tryptophan, tryptophan] | − | No N-alkylated alkaloid product compounds were detected |  |  |  |
| CN1[C@@H]2CC[C@H]1CC(=O)C2 [Tropinone, tropinone] | − | No N-alkylated alkaloid product compounds were detected |  |  |  |
| CN[C@@H](C)[C@H](O)c1ccccc1 [Ephedrine, ephedrine, reference compound] | + |  | − |  | − |
| CN(C)c1ccc(C=O)cc1 [p-dimethylaminobenzaldehyde] | − | No N-alkylated alkaloid product compounds were detected |  |  |  |
| N[C@@H](Cc1ccc(O)cc1)C(=O)O [Tyrosine, tyrosine] | − | No N-alkylated alkaloid product compounds were detected |  |  |  |
| NCCS(=O)(=O)O [Taurine, taurine] | − | No N-alkylated alkaloid product compounds were detected |  |  |  |
| NCCc1ccc(O)c(O)c1 [Dopamine, dopamine] | − | No N-alkylated alkaloid product compounds were detected |  |  |  |
| CNC(C)C(=O)c1ccccc1 (stereo not shown) [N-Methyl-cathinone, N-methyl-cathinone] | + |  |  |  |  |
| Oc1ccc(CC2NCCc3cc(O)c(O)cc32)cc1O (stereo not shown) [Norlaudanosoline, norlaudanosoline] | − | No N-alkylated alkaloid product compounds were detected |  |  |  |
| C[C@H](N)[C@@H](O)c1ccccc1 [Norpseudoephedrine, norpseudoephedrine] | + |  |  |  |  |
| N[C@@H](Cc1ccccc1)C(=O)O [Phenylalanine, phenylalanine] | − | No N-alkylated alkaloid product compounds were detected |  |  |  |
| CC1NCCc2cc(O)c(O)cc21 (stereo not shown) [THQ1, 1-methyl-6,7-dihydroxy-1,2,3,4-tetrahydroisoquinoline] | + |  |  |  |  |
| Cn1cnc2c1c(=O)[nH]c(=O)n2C [Theobromine, theobromine] | − | No N-alkylated alkaloid product compounds were detected |  |  |  |
| Nc1ccccc1C(=O)O [Anthrallic acid, anthranilic acid] | − | No N-alkylated alkaloid product compounds were detected |  |  |  |
| methylephedrine | + |  |  |  |  |
| CC(C)(N)Cc1ccccc1 [Phentermine, phentermine, reference compound] | + |  |  |  |  |
| NCC(O)c1ccc(O)cc1 (stereo not shown) [Octopamine, octopamine] | − | No N-alkylated alkaloid product compounds were detected |  |  |  |
| CC(N)c1ccccc1 (stereo not shown) [1-Phenylethaneamine, 1-phenylethan-1-amine] | − | No N-alkylated alkaloid product compounds were detected |  |  |  |
| NCc1ccccc1 [Benzylamine, benzylamine] | − | No N-alkylated alkaloid product compounds were detected |  |  |  |
| CN[C@@H](C)[C@@H](O)c1ccccc1 [Pseudoephedrine, pseudoephedrine, reference compound] | + |  |  |  |  |
